Measurements from article PMC9046087, “Structural basis of tethered agonism of the adhesion GPCRs ADGRD1 and ADGRF1” (Nature, 2022).
Where a chain is given by its changes, count along the chain named. Ends that are not written are not given here.

Legend:
Assay in all cases: BRET assay using TRUPATH biosensors, Gi activation of ADGRF1
Assay type in all cases: cell-based
ADGRF1 [1] = biological target: T1, ADGRF1 (Homo sapiens, UniProt Q5T601, L678A); conditions: ADGRF1 L678^3.50bA
T1 construct: Flag (N); expressed in transfected cells; host or cells: HEK293F
T1 sequence (Q5T601 20-910 L678A): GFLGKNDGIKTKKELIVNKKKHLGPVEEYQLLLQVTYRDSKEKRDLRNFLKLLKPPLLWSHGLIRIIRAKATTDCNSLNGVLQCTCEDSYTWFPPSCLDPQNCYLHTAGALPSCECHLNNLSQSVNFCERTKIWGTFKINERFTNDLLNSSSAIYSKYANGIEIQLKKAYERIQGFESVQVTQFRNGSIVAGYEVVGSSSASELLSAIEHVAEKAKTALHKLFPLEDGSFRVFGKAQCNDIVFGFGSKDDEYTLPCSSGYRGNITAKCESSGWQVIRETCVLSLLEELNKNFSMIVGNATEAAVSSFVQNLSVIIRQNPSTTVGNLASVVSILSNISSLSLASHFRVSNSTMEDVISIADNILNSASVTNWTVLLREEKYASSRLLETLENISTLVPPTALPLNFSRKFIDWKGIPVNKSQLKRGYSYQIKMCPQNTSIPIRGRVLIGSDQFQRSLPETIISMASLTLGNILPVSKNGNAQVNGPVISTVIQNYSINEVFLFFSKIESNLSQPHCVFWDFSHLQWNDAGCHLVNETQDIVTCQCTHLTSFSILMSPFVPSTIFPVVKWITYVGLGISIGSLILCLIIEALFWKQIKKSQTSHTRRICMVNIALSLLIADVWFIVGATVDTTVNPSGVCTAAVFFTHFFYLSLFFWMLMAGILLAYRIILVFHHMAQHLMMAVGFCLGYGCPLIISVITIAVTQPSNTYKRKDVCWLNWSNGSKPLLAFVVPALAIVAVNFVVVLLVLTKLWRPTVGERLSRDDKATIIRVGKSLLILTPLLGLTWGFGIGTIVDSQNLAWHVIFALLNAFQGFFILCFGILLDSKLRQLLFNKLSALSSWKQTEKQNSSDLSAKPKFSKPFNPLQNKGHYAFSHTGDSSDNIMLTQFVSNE
Method: (§1) To study the synthetic stalk peptide-induced G protein activation of ADGRD1 and ADGRF1, a BRET assay using TRUPATH biosensors was conducted to measure the proximal interaction between RLuc8 fused to the Gα subunit and GFP2 fused to the Gγ subunit. The TRUPATH suite of biosensors was obtained from Addgene (Addgene kit no. 1000000163) as a gift from B. Roth, including GαsS-RLuc8, Gαi1-RLuc8, Gβ3 and Gγ9-GFP2 as previously described.
(§2) The wild-type or mutant ADGRD1 and ADGRF1 were transiently co-transfected with plasmids encoding Gα-RLuc8 (GαsS-RLuc8 for Gs activation assay; Gαi1-RLuc8 for Gi activation assay), Gβ3 and Gγ9-GFP2 at a ratio of 2:1:1:1 (receptor plasmid, 800 ng; G protein subunit plasmids, 400 ng for each) in 2 ml HEK293F cells at a density of 1.2 × 10^6 cells per ml. Cell cultivation and receptor surface expression measurement were performed as described above. The cells were plated into 96-well white plates (40,000 cells per well) in 60 μl of assay buffer and incubated at 37 °C for 30 min. Then 10 μl of freshly prepared 50 μM coelenterazine 400a (Nanolight Technologies) was added. […] The cells were stimulated with 30 μl of synthetic stalk peptide at different concentrations and the BRET signals were monitored continuously five times. The last measurements were used in data analysis. The BRET ratios were calculated as the ratio of the GFP2 emission to RLuc8 emission.

ADGRF1 [2] = biological target: T2, ADGRF1 (Homo sapiens, UniProt Q5T601, G831A); conditions: ADGRF1 G831^7.50bA, n = 3
T2 construct: Flag (N); expressed in transfected cells; host or cells: HEK293F
T2 sequence (Q5T601 20-910 G831A): as the sequence (Q5T601 20-910 L678A) above, with A659L, G812A counted along it
Method: as §1, §2

ADGRF1 [3] = biological target: T3, ADGRF1 (Homo sapiens, UniProt Q5T601, K791A); conditions: ADGRF1 K791^6.40bA
T3 construct: Flag (N); expressed in transfected cells; host or cells: HEK293F
T3 sequence (Q5T601 20-910 K791A): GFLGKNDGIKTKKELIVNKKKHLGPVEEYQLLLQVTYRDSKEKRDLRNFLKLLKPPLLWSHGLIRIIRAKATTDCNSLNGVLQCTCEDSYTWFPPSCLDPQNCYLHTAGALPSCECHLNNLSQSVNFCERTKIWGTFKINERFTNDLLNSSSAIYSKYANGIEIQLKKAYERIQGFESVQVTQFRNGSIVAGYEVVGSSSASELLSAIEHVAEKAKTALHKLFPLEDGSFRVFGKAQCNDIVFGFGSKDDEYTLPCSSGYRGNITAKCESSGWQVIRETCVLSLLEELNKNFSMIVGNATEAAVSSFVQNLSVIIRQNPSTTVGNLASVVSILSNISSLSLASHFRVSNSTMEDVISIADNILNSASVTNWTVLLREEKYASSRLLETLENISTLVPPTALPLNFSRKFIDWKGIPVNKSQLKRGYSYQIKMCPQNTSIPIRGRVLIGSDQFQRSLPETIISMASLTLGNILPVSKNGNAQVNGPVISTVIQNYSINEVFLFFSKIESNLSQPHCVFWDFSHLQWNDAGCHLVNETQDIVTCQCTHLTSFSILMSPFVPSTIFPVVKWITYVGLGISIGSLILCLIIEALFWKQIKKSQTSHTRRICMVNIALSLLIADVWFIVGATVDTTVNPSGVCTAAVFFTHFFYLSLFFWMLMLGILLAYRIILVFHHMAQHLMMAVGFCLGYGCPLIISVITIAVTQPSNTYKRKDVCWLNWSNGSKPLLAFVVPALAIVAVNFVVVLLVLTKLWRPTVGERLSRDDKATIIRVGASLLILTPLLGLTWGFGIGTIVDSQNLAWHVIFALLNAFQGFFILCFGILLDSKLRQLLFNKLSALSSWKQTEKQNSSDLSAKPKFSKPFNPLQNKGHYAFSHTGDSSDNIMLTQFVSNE
Method: as §1, §2

ADGRF1 [4] = biological target: T4, ADGRF1 (Homo sapiens, UniProt Q5T601, T589A); conditions: ADGRF1 T589^1.40bA
T4 construct: Flag (N); expressed in transfected cells; host or cells: HEK293F
T4 sequence (Q5T601 20-910 T589A): as the sequence (Q5T601 20-910 L678A) above, with T570A, A659L counted along it
Method: as §1, §2

ADGRF1 [5] = biological target: T5, ADGRF1 (Homo sapiens, UniProt Q5T601, R623A); conditions: ADGRF1 R623^2.46bA
T5 construct: Flag (N); expressed in transfected cells; host or cells: HEK293F
T5 sequence (Q5T601 20-910 R623A): T3 sequence (Q5T601 20-910 K791A) with R604A, A772K
Method: as §1, §2

ADGRF1 [6] = biological target: T6, ADGRF1 (Homo sapiens, UniProt Q5T601, F641A); conditions: ADGRF1 F641^2.64bA
T6 construct: Flag (N); expressed in transfected cells; host or cells: HEK293F
T6 sequence (Q5T601 20-910 F641A): as the sequence (Q5T601 20-910 L678A) above, with F622A, A659L counted along it
Method: as §1, §2

ADGRF1 [7] = biological target: T7, ADGRF1 (Homo sapiens, UniProt Q5T601, M627A); conditions: ADGRF1 M627^2.50bA
T7 construct: Flag (N); expressed in transfected cells; host or cells: HEK293F
T7 sequence (Q5T601 20-910 M627A): as the sequence (Q5T601 20-910 L678A) above, with M608A, A659L counted along it
Method: as §1, §2

[8] = n = 3, read-out: pEC50 (mean ± s.e.m.) (converted)

Emax (mean ± s.e.m.) (ADGRF1 [1]; n = 3): 58 ± 7 % of WT | EC50 (ADGRF1 [1]; [8]): 129 nM | EC50 (ADGRF1 [2]): 1040 nM | Emax (mean ± s.e.m.) (ADGRF1 [2]): 97 ± 15 % of WT | Emax (mean ± s.e.m.) (ADGRF1 [3]; n = 3): 102 ± 13 % of WT | EC50 (ADGRF1 [3]; [8]): 102 nM | Emax (mean ± s.e.m.) (ADGRF1 [4]; n = 3): 114 ± 13 % of WT | EC50 (ADGRF1 [4]; [8]): 87.1 nM | Emax (mean ± s.e.m.) (ADGRF1 [5]; n = 3): 120 ± 8 % of WT | EC50 (ADGRF1 [5]; [8]): 447 nM | Emax (mean ± s.e.m.) (ADGRF1 [6]; n = 3): 82 ± 15 % of WT | EC50 (ADGRF1 [6]; [8]): 204 nM | Emax (mean ± s.e.m.) (ADGRF1 [7]; n = 3): 113 ± 8 % of WT | EC50 (ADGRF1 [7]; [8]): 692 nM
Sequence: TSFSILMSPFVP [pF1]
